According to the supplement of paper PMC10307832:

Legend:
Test in all cases: relative viability (nuclei count vs DMSO), 5 days (fraction); higher = more cells survive
Metformin + Dasatinib = compound: CN(C)C(=N)NC(=N)N [Metformin] + Cc1nc(Nc2ncc(C(=O)Nc3c(C)cccc3Cl)s2)cc(N2CCN(CCO)CC2)n1 [Dasatinib] (partner 0.075 µM)
In short: (§1)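 A single step with final 0.05% Triton X-100, 1% formaldehyde and 1 ug/ml Hoechst fixed the cells and stained nuclei 5 days after treatment. Lung cancer cell lines in 1536-well plates had been treated by pin tool the day after seeding with one drug alone or a fixed anchor-drug dose plus five library-drug doses (not always all listed) in √10 steps, and nuclei were counted on 4× images. Relative viability is the ratio of nuclei in treated wells to nuclei in vehicle wells, taken as the median of duplicate plates.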

Apatinib + Navitoclax = compound: N#CC1(c2ccc(NC(=O)c3cccnc3NCc3ccncc3)cc2)CCCC1 [Apatinib] + CC1(C)CCC(c2ccc(Cl)cc2)=C(CN2CCN(c3ccc(C(=O)NS(=O)(=O)c4ccc(N[C@H](CCN5CCOCC5)CSc5ccccc5)c(S(=O)(=O)C(F)(F)F)c4)cc3)CC2)C1 [Navitoclax] (partner 0.5 µM)
In short: as §1

Apatinib + Tozasertib = compound: N#CC1(c2ccc(NC(=O)c3cccnc3NCc3ccncc3)cc2)CCCC1 [Apatinib] + Cc1cc(Nc2cc(N3CCN(C)CC3)nc(Sc3ccc(NC(=O)C4CC4)cc3)n2)n[nH]1 [Tozasertib] (partner 0.1 µM)
In short: as §1

Apatinib + AZD7762 = compound: N#CC1(c2ccc(NC(=O)c3cccnc3NCc3ccncc3)cc2)CCCC1 [Apatinib] + NC(=O)Nc1cc(-c2cccc(F)c2)sc1C(=O)N[C@H]1CCCNC1 [AZD7762] (partner 0.2 µM)
In short: as §1

**Q.** NCI-H460 was tested. Which relative viability (Metformin + Dasatinib; first compound 10 µM) did it give?
**A.** 0.402

**Q.** And the relative viability (Metformin + Dasatinib; first compound 31.62 µM)?
**A.** 0.546

**Q.** And the relative viability (Metformin + Dasatinib; first compound 100 µM)?
**A.** 0.353

**Q.** And the relative viability (Metformin + Dasatinib; first compound 316.23 µM)?
**A.** 0.43

**Q.** And the relative viability (Metformin + Dasatinib; first compound 1000 µM)?
**A.** 0.457

**Q.** And the relative viability (Apatinib + Navitoclax; first compound 0.08 µM)?
**A.** 1.1

**Q.** And the relative viability (Apatinib + Navitoclax; first compound 0.253 µM)?
**A.** 1.14

**Q.** And the relative viability (Apatinib + Navitoclax; first compound 0.8 µM)?
**A.** 1.03

**Q.** And the relative viability (Apatinib + Navitoclax; first compound 2.53 µM)?
**A.** 1.06

**Q.** And the relative viability (Apatinib + Navitoclax; first compound 8 µM)?
**A.** 1.05

**Q.** And the relative viability (Apatinib + Tozasertib; first compound 0.08 µM)?
**A.** 0.576

**Q.** And the relative viability (Apatinib + Tozasertib; first compound 0.253 µM)?
**A.** 0.51

**Q.** What about the relative viability (Apatinib + Tozasertib; first compound 0.8 µM) of the same cell line?
**A.** 0.223

**Q.** And the relative viability (Apatinib + Tozasertib; first compound 2.53 µM)?
**A.** 0.0517

**Q.** What about the relative viability (Apatinib + Tozasertib; first compound 8 µM) of the same cell line?
**A.** 0.053

**Q.** And the relative viability (Apatinib + AZD7762; first compound 0.08 µM)?
**A.** 0.538

**Q.** And the relative viability (Apatinib + AZD7762; first compound 0.253 µM)?
**A.** 0.581

**Q.** What about the relative viability (Apatinib + AZD7762; first compound 0.8 µM) of the same cell line?
**A.** 0.417

**Q.** What about the relative viability (Apatinib + AZD7762; first compound 2.53 µM) of the same cell line?
**A.** 0.269

**Q.** What about the relative viability (Apatinib + AZD7762; first compound 8 µM) of the same cell line?
**A.** 0.394
